According to paper PMC3083694, “Effects of Intermediates between Vitamins K2 and K3 on Mammalian DNA Polymerase Inhibition and Anti-Inflammatory Activity” (International Journal of Molecular Sciences, 2011):

Assays:
Human DNA polymerase γ [1] = biological target: T1, Human DNA polymerase γ (Homo sapiens, UniProt P54098); parameters: method as in PMID 18312466, PMID 18698499, PMID 20030669, PMID 20881898; details: earlier work of the authors; cited from earlier work
T1 construct: made in house
T1 sequence (P54098 1-1239): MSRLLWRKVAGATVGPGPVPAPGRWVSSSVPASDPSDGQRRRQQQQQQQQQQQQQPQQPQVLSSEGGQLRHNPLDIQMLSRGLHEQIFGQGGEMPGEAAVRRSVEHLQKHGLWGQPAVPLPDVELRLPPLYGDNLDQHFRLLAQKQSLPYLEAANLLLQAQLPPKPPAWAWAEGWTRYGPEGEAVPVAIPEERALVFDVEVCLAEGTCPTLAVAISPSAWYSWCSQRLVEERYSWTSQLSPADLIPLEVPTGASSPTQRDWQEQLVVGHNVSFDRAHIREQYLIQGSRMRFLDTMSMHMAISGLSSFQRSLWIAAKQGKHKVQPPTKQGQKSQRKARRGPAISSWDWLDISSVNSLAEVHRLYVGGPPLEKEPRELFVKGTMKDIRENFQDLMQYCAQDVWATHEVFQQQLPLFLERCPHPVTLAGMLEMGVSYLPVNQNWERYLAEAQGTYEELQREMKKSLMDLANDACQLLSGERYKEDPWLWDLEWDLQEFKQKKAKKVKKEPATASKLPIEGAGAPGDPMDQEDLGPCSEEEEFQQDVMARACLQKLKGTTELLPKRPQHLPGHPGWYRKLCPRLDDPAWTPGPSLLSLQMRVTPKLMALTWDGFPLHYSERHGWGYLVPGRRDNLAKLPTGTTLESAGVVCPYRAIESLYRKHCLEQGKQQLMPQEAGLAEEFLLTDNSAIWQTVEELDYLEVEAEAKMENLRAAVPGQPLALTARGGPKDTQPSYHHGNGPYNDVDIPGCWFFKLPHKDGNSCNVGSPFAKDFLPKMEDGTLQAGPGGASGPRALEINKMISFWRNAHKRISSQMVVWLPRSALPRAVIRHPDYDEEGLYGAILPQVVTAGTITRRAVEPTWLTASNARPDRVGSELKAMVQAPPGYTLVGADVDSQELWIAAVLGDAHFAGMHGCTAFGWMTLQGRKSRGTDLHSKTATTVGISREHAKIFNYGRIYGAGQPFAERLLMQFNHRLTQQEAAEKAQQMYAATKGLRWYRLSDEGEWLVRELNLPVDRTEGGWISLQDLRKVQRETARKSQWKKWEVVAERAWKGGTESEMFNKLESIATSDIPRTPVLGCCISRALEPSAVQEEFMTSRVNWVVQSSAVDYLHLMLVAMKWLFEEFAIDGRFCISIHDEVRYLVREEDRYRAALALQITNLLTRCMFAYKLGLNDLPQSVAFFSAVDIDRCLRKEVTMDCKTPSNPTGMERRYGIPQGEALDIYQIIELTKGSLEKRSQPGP

[2] = system: LPS-induced production of TNF-α in RAW264.7 cells; assay: LPS-induced TNF-α production in mouse macrophages (ELISA); type: cell-based; details: 10 and 50 μM tested, concentration not specified, Figure 4
Description: A mouse macrophage cell line, RAW264.7, was obtained from American Type Culture Collection (ATCC) (Manassas, VA, U.S.). The cells were cultured in Eagle’s Minimum Essential Medium (MEM) supplemented with 4.5 g of glucose per liter plus 10% fetal calf serum, 5 mM L-glutamine, 50 units/mL penicillin and 50 units/mL streptomycin. The cells were cultured at 37 °C in standard medium in a humidified atmosphere of 5% CO2–95% air.
RAW264.7 cells were placed in a 12-well plate at 5 × 10^4 cells/well and incubated for 24 h. The cells were pretreated with the VK2 and VK3 intermediates (final concentrations of 10 and 50 μM) for 30 min before the addition of 100 ng/mL of LPS. After stimulation with LPS for 24 h, the cell culture medium was collected to measure the amount of TNF-α secreted. The concentration of TNF-α in the culture medium was quantified by using a commercially available enzyme-linked immunosorbent assay (ELISA) development system (Bay Bioscience Co., Ltd., Kobe, Japan) in accordance with the manufacturer’s protocol.

[3] = system: TPA-induced edema on mouse ear; assay: TPA-induced mouse ear inflammatory test; type: in vivo; details: 250 or 500 μg applied to ear 30 min before TPA (0.5 μg); edema evaluated after 7 h; Figure 3
Description: All animal studies were performed according to the guidelines outlined in the “Care and Use of Laboratory Animals” of Kobe University. The animals were anesthetized with pentobarbital before undergoing cervical dislocation. Female 8-week-old C57BL/6 mice that had been bred in-house with free access to food and water were used for all experiments. All of the mice were maintained under a 12-h light/dark cycle and housed at a room temperature of 25 °C.
The mouse inflammatory test was performed according to Gschwendt’s method. In brief, an acetone solution of the VK2 and VK3 intermediates (250 or 500 μg in 20 μL) or 20 μL of acetone as a vehicle control was applied to the inner part of the mouse ear. Thirty minutes after the test compound was applied, a TPA solution (0.5 μg/20 μL of acetone) was applied to the same part of the ear. To the other ear of the same mouse, methanol, followed by TPA solution, was applied as a control. After 7 h, a disk (6 mm diameter) was obtained from the ear and weighed. The inhibitory effect (IE) is presented as a ratio of the increase in weight of the ear disks: IE=[(TPA only)−(tested compound plus TPA)]/[(TPA only)−(vehicle)]×100

Human DNA polymerase γ [4] = biological target: T1, Human DNA polymerase γ; assay: DNA polymerase activity assay, human pol γ; type: biochemical; details: 50 μM of each compound; Figure 2
Description: Pols from mammals, a fish (cherry salmon), an insect (fruit fly) and a plant (cauliflower) were purified, and prokaryotic pols and other DNA metabolic enzymes, such as T7 RNA polymerase, T4 polynucleotide kinase and bovine deoxyribonuclease I, were purchased as described in our previous report. The activities of all pols and other DNA metabolic enzymes were measured as described in previous reports.
The components of the pol assay were poly(dA)/oligo(dT)18 and dTTP as the DNA template-primer and 2′-deoxyribonucleoside 5′-triphosphate (dNTP) substrate, respectively. VK2, VK3, and their synthesized derivatives (i.e., MK-3, MK-2 and MK-1) were dissolved in dimethyl sulfoxide (DMSO) at various concentrations and sonicated for 30 s. The sonicated samples (4 μL) were mixed with 16 μL of each pol enzyme (final amount, 0.05 units) in 50 mM Tris-HCl (pH 7.5) containing 1 mM dithiothreitol, 50% glycerol and 0.1 mM EDTA, and kept at 0 °C for 10 min. These inhibitor–enzyme mixtures (8 μL) were added to 16 μL of each standard enzyme reaction mixture (50 mM Tris-HCl [pH 7.5], 1 mM dithiothreitol, 1 mM MgCl2, 15% glycerol, 10 μM poly(dA)/oligo(dT)18 and 10 μM [^3H]-dTTP), and incubation was carried out at 37 °C for 60 min, except for Taq pol, which was incubated at 74 °C for 60 min. Activity without the inhibitor was considered to be 100%, and the activity remaining at each concentration of inhibitor was determined relative to this value. One unit of pol activity was defined as the amount of enzyme that catalyzed the incorporation of 1 nmol dNTP (dTTP) into the synthetic DNA template-primer (poly(dA)/oligo(dT)18, A/T = 2/1) in 60 min at 37 °C under normal reaction conditions for each enzyme (scintillation counts: approximately 1 pmol of incorporated radioactive nucleotides = 100 cpm).

Human DNA polymerase λ = biological target: T2, Human DNA polymerase λ (Homo sapiens, UniProt Q9UGP5); parameters: method as in PMID 19502749, PMID 14599551; details: reported previously; cited from earlier work
T2 construct: made in house
T2 sequence (Q9UGP5 1-575): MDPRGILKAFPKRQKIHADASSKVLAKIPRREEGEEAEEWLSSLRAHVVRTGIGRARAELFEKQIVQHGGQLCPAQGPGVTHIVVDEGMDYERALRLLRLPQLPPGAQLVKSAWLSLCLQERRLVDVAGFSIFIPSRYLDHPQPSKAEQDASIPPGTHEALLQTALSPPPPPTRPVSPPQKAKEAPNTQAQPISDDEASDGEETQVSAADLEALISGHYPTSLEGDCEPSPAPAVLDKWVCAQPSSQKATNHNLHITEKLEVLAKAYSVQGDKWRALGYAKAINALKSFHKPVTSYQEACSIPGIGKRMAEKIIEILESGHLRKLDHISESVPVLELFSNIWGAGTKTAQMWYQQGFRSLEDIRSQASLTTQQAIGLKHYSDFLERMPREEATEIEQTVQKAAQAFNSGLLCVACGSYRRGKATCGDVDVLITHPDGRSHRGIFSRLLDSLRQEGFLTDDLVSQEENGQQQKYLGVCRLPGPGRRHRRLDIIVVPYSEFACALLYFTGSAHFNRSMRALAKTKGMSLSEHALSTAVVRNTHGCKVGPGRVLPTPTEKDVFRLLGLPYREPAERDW

Row | Inhibitory effect on human pol γ activity (Human DNA polymerase γ [4]) | Compound | Inhibitor of human pol γ (Human DNA polymerase γ [1]) | Inhibitory effect on LPS-stimulated TNF-α production [2] | Anti-inflammatory activity toward TPA-induced edema on mouse ear [3] | Inhibitor of pol λ (selectivity) (Human DNA polymerase λ)
1 |  | CC1=C(C/C=C(\C)CCC[C@H](C)CCC[C@H](C)CCCC(C)C)C(=O)c2ccccc2C1=O [VK1, phylloquinone] | not |  |  | 
2 | selectively inhibited pol γ | CC1=CC(=O)c2ccccc2C1=O [VK3, menadione, reference compound] | potent and specific inhibitor | moderate inhibitory effect | weak effect | 
3 |  | COc1cc(/C=C/C(=O)CC(=O)/C=C/c2ccc(O)c(OC)c2)ccc1O [curcumin] |  |  |  | pol-λ-specific inhibitor
